Converted amounts (≈) assume the structure as drawn. Like-named read-outs stand apart in the source and are kept apart here.

The values below come from article PMC5659129, “Determinants of the Inhibition of DprE1 and CYP2C9 by Antitubercular Thiophenes” (Angewandte Chemie (International Ed. in English), 2017).

The test system of one data set is Mtb WT. Put plainly: microbe, parasite or virus in culture. To be noted: for MIC: Mycobacterium tuberculosis, 168 h. The data set is classed as cell-based, Mycobacterium tuberculosis.
For data set [1], the system named is Mtb Erdman. The data set is classed as in vivo, BALB/c mouse. The following applies: 3 weeks, acute phase.
In data set [2] the test system is Mtb Erdman. The data set is classed as in vivo, BALB/c mouse. The following applies: 200 mg kg−1, oral, 4 weeks, chronic phase.
Data set [3] concerns the target T1, CYP2C9 (Homo sapiens, UniProt P11712). To be noted: for IC50 ratio (CYP2C9 over DprE1): selectivity.
In another data set the target is CYP1A2 (Homo sapiens, UniProt P05177). The following applies: microsomes.
Sequence of CYP1A2 (P05177 whole entry): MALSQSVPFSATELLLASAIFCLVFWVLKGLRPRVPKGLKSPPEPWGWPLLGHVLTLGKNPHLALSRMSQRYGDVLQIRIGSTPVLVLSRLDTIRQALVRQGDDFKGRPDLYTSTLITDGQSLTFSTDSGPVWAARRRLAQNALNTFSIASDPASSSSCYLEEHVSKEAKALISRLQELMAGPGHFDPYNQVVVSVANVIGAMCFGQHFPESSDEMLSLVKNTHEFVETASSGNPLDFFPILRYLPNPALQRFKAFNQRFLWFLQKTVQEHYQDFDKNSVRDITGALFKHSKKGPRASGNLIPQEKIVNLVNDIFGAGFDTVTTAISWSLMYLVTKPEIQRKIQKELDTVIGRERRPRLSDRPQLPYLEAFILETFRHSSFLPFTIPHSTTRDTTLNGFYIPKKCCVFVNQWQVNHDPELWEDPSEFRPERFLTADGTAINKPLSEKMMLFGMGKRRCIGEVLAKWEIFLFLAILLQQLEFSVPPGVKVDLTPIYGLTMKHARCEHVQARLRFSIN
The next data set concerns the target CYP3A4 (Homo sapiens, UniProt P08684). To be noted: microsomes.
For the next data set, the target named is CYP2D6 (Homo sapiens, UniProt P10635). To be noted: microsomes.
Sequence of CYP2D6 (P10635 whole entry): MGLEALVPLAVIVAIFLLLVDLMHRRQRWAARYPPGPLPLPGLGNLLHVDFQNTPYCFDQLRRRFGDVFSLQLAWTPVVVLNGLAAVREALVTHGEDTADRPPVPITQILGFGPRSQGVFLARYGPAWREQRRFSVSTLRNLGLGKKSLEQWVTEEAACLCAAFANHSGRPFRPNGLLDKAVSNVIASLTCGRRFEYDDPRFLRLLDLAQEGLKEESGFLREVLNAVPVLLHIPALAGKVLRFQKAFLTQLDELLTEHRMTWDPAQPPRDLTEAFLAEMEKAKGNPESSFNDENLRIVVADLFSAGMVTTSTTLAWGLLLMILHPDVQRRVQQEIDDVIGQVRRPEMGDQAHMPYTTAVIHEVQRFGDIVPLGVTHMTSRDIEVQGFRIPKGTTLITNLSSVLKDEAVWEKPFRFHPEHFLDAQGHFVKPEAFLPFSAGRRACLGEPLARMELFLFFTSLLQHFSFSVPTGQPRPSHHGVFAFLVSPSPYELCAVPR
The target in another data set is CYP2C19 (Homo sapiens, UniProt P33261). The following applies: microsomes.
Sequence of CYP2C19 (P33261 whole entry): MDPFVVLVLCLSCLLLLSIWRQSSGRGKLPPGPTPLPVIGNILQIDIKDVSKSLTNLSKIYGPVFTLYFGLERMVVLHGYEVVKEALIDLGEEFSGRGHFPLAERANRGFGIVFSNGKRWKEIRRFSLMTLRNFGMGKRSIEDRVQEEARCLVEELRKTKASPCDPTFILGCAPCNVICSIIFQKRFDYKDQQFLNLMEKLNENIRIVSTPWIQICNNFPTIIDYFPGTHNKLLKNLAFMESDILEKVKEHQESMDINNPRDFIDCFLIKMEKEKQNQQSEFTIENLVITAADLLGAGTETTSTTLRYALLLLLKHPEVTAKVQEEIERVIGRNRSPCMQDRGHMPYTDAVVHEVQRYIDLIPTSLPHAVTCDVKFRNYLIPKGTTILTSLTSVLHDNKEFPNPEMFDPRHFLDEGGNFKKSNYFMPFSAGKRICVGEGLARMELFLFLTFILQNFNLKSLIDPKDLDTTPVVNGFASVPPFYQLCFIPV
The target of another data set is hERG potassium channel (Homo sapiens, UniProt Q12809). Put plainly: cell-based.
Sequence of hERG potassium channel (Q12809 whole entry): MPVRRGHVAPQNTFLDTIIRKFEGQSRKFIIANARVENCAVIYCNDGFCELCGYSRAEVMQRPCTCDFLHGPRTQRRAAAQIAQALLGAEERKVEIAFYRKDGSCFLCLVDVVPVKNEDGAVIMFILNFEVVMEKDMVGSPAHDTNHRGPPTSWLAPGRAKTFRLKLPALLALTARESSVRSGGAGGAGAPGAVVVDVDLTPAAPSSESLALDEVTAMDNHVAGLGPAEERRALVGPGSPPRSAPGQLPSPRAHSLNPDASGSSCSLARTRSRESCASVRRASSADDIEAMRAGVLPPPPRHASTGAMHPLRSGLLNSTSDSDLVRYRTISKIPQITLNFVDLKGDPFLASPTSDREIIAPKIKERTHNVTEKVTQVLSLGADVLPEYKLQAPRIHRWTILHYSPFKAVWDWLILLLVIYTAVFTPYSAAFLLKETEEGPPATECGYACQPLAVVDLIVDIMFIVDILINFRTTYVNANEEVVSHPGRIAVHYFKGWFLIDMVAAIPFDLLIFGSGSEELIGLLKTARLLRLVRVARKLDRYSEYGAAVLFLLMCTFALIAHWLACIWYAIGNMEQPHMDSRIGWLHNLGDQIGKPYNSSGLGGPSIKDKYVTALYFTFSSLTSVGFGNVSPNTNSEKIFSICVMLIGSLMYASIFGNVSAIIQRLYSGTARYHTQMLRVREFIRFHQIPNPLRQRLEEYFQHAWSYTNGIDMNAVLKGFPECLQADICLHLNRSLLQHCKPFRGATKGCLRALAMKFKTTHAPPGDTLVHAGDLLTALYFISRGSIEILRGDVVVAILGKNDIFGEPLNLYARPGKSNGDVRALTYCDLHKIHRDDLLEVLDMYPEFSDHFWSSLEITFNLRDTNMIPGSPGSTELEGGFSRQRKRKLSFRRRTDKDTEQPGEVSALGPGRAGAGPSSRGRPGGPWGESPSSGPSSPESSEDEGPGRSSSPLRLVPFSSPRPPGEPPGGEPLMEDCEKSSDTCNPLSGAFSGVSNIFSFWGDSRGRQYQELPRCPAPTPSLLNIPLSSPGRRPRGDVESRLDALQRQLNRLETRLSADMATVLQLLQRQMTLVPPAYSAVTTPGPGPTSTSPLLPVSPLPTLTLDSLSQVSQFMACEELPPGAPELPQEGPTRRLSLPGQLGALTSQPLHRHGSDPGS
Data set [4] is described as follows: Mini-Ames mutagenicity test.
The test system of the next data set is HepG2 cell line. As to the kind of experiment: In vitro cytotoxicity assay, HepG2. The following applies: up to a concentration of 100 μM.
In another data set the test system is Vero cell line. As to the kind of experiment: In vitro cytotoxicity assay (MTT), Vero. To be noted: up to a concentration of 100 μM.
Data set [5] has as its target T1, CYP2C9. As to the kind of experiment: in vitro. To be noted: microsomes, pH 7.4.
For a further data set, the target named is M. smegmatis DprE1 WT (Mycolicibacterium smegmatis, UniProt A0R607). As to the kind of experiment: biochemical.
Sequence of M. smegmatis DprE1 WT (A0R607 whole entry): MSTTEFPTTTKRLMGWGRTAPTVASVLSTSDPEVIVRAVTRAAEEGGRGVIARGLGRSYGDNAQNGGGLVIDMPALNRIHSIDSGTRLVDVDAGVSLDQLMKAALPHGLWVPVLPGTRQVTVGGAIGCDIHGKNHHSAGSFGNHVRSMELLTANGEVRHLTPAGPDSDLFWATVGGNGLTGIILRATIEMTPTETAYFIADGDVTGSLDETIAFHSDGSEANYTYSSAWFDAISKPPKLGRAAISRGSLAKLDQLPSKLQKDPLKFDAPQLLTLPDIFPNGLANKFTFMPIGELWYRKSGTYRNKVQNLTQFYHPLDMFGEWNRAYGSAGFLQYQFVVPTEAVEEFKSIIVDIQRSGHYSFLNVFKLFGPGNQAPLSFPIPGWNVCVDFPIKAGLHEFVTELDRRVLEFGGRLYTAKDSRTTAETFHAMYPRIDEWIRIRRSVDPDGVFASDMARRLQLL
Data set [6] has as its target T1, CYP2C9. Put plainly: biochemical.
Where [7] appears, read: MABA, 7 days, 90% reduction in fluorescence.

T1 sequence (P11712 whole entry): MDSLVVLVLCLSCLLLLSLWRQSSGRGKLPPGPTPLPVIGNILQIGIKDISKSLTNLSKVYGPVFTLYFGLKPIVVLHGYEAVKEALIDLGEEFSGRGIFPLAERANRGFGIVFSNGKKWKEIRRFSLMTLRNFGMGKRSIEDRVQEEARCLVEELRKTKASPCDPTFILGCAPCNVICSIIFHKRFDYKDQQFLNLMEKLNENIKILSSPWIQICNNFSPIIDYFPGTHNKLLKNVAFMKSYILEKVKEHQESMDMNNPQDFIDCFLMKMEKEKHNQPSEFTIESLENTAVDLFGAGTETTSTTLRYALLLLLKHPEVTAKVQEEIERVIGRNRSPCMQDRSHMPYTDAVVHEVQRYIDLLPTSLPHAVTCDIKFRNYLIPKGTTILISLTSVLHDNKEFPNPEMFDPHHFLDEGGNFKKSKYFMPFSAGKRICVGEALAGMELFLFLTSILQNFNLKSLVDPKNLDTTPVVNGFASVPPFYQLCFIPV
Sequence of CYP3A4 (P08684 whole entry): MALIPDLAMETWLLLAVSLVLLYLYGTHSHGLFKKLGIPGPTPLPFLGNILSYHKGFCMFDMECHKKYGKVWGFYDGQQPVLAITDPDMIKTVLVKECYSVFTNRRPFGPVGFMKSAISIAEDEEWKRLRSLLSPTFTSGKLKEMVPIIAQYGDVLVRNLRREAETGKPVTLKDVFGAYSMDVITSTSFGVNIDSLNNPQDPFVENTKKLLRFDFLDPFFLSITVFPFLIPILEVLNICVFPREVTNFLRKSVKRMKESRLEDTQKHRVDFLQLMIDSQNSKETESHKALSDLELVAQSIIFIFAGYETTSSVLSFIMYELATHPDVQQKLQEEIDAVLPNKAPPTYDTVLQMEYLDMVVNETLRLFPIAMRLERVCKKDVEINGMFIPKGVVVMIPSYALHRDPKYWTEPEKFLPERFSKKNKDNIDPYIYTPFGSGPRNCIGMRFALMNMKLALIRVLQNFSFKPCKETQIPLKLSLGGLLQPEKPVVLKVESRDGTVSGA
Description for Vero cell line: In vitro cytotoxicity assay. Vero epithelial cells (from African green monkey; ATCC
CCL-81) were cultured in Dulbecco’s modified Eagle’s medium (DMEM) supplemented
with 10% fetal bovine serum (FBS) and maintained in a humidified incubator (37°C in
5% CO2). Cells were dislodged with a cell scraper, collected by centrifugation,
resuspended in fresh medium at 10^6 cells/ml, dispensed into 96-well microtiter plates
(100 ml/well), and incubated for 18 h at 37°C. Two-fold serial dilutions of test
compounds in DMEM with FBS were subsequently added, and cells were incubated for
another 72 h. In triplicate studies, the cytopathic effects of compounds were evaluated
colorimetrically by using the 3-(4, 5- dimethyl-2-thiazolyl)-2, 5-diphenyl-2H-tetrazolium
bromide (MTT) cell proliferation assay (ATCC).

On to `CCOC(=O)NC(=O)c1cc(F)sc1NC(=O)c1nc2ccccc2s1` [TCA481], for which, in the data set with Mtb WT (MIC relative to TCA1), the “more potent than TCA1 based on MIC” value was 5 fold. Moreover, in the data set with Mtb WT (setting [7]), the MIC worked out at 0.046 ± 0.0025 µM (≈ 0.0181 µg/mL).
Regarding `CCOC(=O)NC(=O)c1ccsc1NC(=O)c1nc2cnccc2s1` [TCA007], the MIC in the data set with Mtb WT (setting [7]) worked out at 0.089 ± 0.0066 µM (≈ 0.0335 µg/mL). Moreover, the “reduction of bacterial load in lung” value with Mtb Erdman [1] (50 mg kg−1, oral) is listed as 1.7 log10 CFU; in the data set with Mtb Erdman [1] (100 mg kg−1, oral) it was 2.3 log10 CFU. Besides, the “reduction of CFU in mouse lungs” value with Mtb Erdman [2] is more than 1.7 log10 CFU. Also, at CYP2C9 [3] (microsomes), the “inhibitory effect for CYP2C9” value is “strong inhibitory effect”. In addition, the “inhibition of CYP1A2” value against CYP1A2 is given as “no inhibition”. Besides, the “inhibition of CYP3A4” value against CYP3A4 is on record as “no inhibition”. Besides, on CYP2D6, the “inhibition of CYP2D6” value is recorded as “no inhibition”. The “inhibition of CYP2C19” value against CYP2C19 was “no inhibition”. In addition, the half-maximal inhibitory concentration (IC50) at hERG potassium channel was more than 30 µM. Also, in data set [4], the genetic toxicity entry is “no genetic toxicity”. Besides, in the data set with HepG2 cell line, the “cytotoxicity against HepG2” value is on record as “not cytotoxic”. For the same molecule, the “cytotoxicity against Vero” value in the data set with Vero cell line is given as “not cytotoxic”.
Take `CCOC(=O)NC(=O)c1ccsc1NC(=O)c1ccn2cnnc2c1` [TCA582]: the “IC50 ratio (CYP2C9 over DprE1)” value at CYP2C9 [3] is on record as 33. For the same molecule, the IC50 against CYP2C9 [5] is 1.83 µM.
For the molecule `O=C(Nc1sccc1C(=O)Nc1ncccn1)c1nc2cnccc2s1` [TCA020], in the data set with Mtb WT (setting [7]), the “MIC WT” value is 2.5 ± 0.48 µM (≈ 0.956 µg/mL) and the MIC stood at 2.5 µM (≈ 0.956 µg/mL).
The molecule `CCOC(=O)NC(=O)c1ccsc1NC(=O)c1nc2ccccc2s1` [TCA1] yielded an MIC with Mtb WT (setting [7]) of 0.23 ± 0.012 µM (≈ 0.0863 µg/mL).
`Cc1ccnc(NC(=O)c2ccsc2NC(=O)c2ccn3cnnc3c2)n1` [TCA711]: the IC50 was 0.03 µM at M. smegmatis DprE1 WT (Figure 4D, read-out: DprE1 IC50) and more than 50 µM against CYP2C9 [6]. The “IC50 ratio (CYP2C9 over DprE1)” value at CYP2C9 [3] was determined as 1515.
For the molecule `Cc1ccnc(NC(=O)c2ccsc2NC(=O)c2nc3cnccc3s2)n1` [TCA787], at M. smegmatis DprE1 WT (M. smegmatis DprE1, Table 1, read-out: IC50 DprE1 WT), the IC50 stood at 0.096 ± 0.038 µM. Also, in the data set with Mtb WT (setting [7]), the MIC came out at 0.44 ± 0.12 µM (≈ 0.174 µg/mL).

The term IC50 denotes the concentration needed to halve the response being measured.
